Experiment [1] concerns the target T1, Human fibrinogen receptor (αIIbβ3) (Homo sapiens, UniProt P05106+P08514).
T1 construct: Human fibrinogen receptor (αIIbβ3) was purified from outdated platelets; from tissue; host or cells: outdated human platelets
The experiment in a line: Purified IIb/IIIa receptor assay (solid phase receptor assay, competition with biotinylated vitronectin). To be noted: read-out: IIb/IIIa IC50. In kind it is binding. As for the experimental part: PURIFIED IIb/IIIa RECEPTOR ASSAY
Human fibrinogen receptor (αIIbβ3) was purified from outdated platelets. […] Biotinylated human vitronectin was prepared by coupling NHS-biotin from Pierce Chemical Company (Rockford, Ill.) to purified vitronectin as previously described. […] Anti-biotin antibody was obtained from Calbiochem (La Jolla, Calif.). Linbro microtiter plates were obtained from Flow Labs (McLean, Va.). ADP reagent was obtained from Sigma (St. Louis, Mo.).
(§1) Solid Phase Receptor Assays
(§2) The purified human fibrinogen receptor (αIIbβ3) was diluted from stock solutions to 1.0 μg/mL in Tris-buffered saline containing 1.0 mM Ca^++, Mg^++, and Mn^++, pH 7.4 (TBS^+++). The diluted receptor was immediately transferred to Linbro microtiter plates at 100 μL/well (100 ng receptor/well). The plates were sealed and incubated overnight at 4° C. to allow the receptor to bind to the wells. All remaining steps were at room temperature. The assay plates were emptied and 200 μL of 1% RIA grade BSA in TBS^+++ (TBS^+++/BSA) were added to block exposed plastic surfaces. Following a 2 hour incubation, the assay plates were washed with TBS^+++ using a 96 well plate washer. Logarithmic serial dilution of the test compound and controls were made starting at a stock concentration of 2 mM and using 2 nM biotinylated vitronectin in TBS^+++/BSA as the diluent. This premixing of labeled ligand with test (or control) ligand, and subsequent transfer of 50 μL aliquots to the assay plate was carried out with a CETUS Propette robot; the final concentration of the labeled ligand was 1 nM and the highest concentration of test compound was 1.0×10^−4 M. The competition occurred for two hours after which all wells were washed with a plate washer as before. Affinity purified horseradish peroxidase labeled goat anti-biotin antibody was diluted 1:3000 in TBS^+++/BSA and 125 μL were added to each well. After 30 minutes, the plates were washed and incubated with ODD/H2O2 substrate in 100 mM/L citrate buffer, pH 5.0. The plate was read with a microtiter plate reader at a wavelength of 450 nm and when the maximum-binding control wells reached an absorbance of about 1.0, the final A450 were recorded for analysis. The data were analyzed using a macro written for use with the EXCEL™ spreadsheet program. The mean, standard deviation, and % CV were determined for duplicate concentrations. The mean A450 values were normalized to the mean of four maximum-binding controls (no competitor added)(B-MAX). The normalized values were subjected to a four parameter curve fit algorithm, [Robard et al., Int.

Experiment [2] has as its target T2, Human vitronectin receptor (αvβ3) (Homo sapiens, UniProt P05106+P06756).
T2 construct: Human vitronectin receptor (αvβ3) was purified from human placenta; from tissue; host or cells: human placenta
The experiment in a line: Vitronectin adhesion assay (solid phase receptor assay, competition with biotinylated vitronectin). The following applies: read-out: AvB3 IC50. In kind it is binding. As for the experimental part:
VITRONECTIN ADHESION ASSAY
Assay buffer, OPD substrate tablets, and RIA grade BSA were obtained from Sigma (St. Louis, Mo.). Anti-biotin antibody was obtained from Calbiochem (La Jolla, Calif.). Linbro microtiter plates were obtained from Flow Labs (McLean, Va.). ADP reagent was obtained from Sigma (St. Louis, Mo.).
as §1
as §2, with “vitronectin” for “fibrinogen”, “(αvβ3)” for “(αIIbβ3)”, “TBS^+++(TBS^+++/BSA)” for “TBS^+++ (TBS^+++/BSA)”, “OPD/H2O2” for “ODD/H2O2”, “Citrate” for “citrate”, “algorithm [Rodbard” for “algorithm, [Robard”

Each structure is given as a SMILES string. Where a name gives a salt, the structure may show the parent alone.

With `N=C(N)Nc1cccc(C(=O)NCC(=O)NC(CC(=O)O)CC(=O)Nc2cc(Cl)cc(Cl)c2)c1` (stereo not shown) [Example 288, 3-[[2-[[[3-[(aminoiminomethyl)amino]phenyl]carbonyl]amino]acetyl]amino)-5-[(3,5-dichlorophenyl)amino]-5-oxopentanoic acid, trifluoroacetate salt], the IC50 in experiment [1] is 1060 nM; in experiment [2], 8.62 nM.

With `N=C(N)Nc1cccc(C(=O)NCC(=O)NC(CC(=O)O)c2cccc(Br)c2)c1` (racemic) [Example 185, (±)β-[[2-[[[3-[(aminoiminomethyl)amino]phenyl]carbonyl]amino]acetyl]amino]-3-bromobenzenepropanoic acid, trifluoroacetate salt], the IC50 worked out at 166 nM in experiment [1] and 1.47 nM in experiment [2].

With `CCOC(=O)/N=C(/NC(=O)OCC)Nc1cccc(C(=O)NCC(=O)NC(CC(=O)O)c2cc(Cl)cc(Cl)c2)c1` (stereo not drawn) [Example 166, 3,5-dichloro-β-[[2-[[[3-[[[(ethoxycarbonyl)amino][(ethoxycarbonyl)imino]methyl]amino]phenyl]carbonyl]amino]acetyl]amino]benzenepropanoic acid], the IC50 in experiment [1] came out at 45900 nM; in experiment [2], 13000 nM.

Take `O=C(O)CC(NC(=O)CNC(=O)c1cccc(NC2=NCCCN2)c1)c1cc(Cl)cc(Br)c1` (racemic) [Example 215, (±)3-bromo-5-chloro-β-[[2-[[[3-[(1,4,5,6-tetrahydropyrimidin-2-yl)amino]phenyl]carbonyl]amino]acetyl]amino]-benzenepropanoic acid, trifluoroacetate salt]: the IC50 is 656 nM in experiment [1] and 0.41 nM in experiment [2].

As for `N=C(N)Nc1cccc(C(=O)NCC(=O)NC(CC(=O)O)c2ccc(Br)cc2)c1` (racemic) [Example 187, (±)β-[[2-[[[3-[(aminoiminomethyl)amino]phenyl]carbonylamino]acetyl]amino]-4-bromobenzenepropanoic acid, trifluoroacetate salt], the IC50 was found to be 264 nM in experiment [1] and 1.31 nM in experiment [2].

As for `CCOC(=O)CC(NC(=O)CNC(=O)c1cccc(NC(N)=S)c1)c1cccnc1` (stereo not drawn) [Example 113, ethyl β-[[2-[[[3-[(aminothioxomethyl)amino]phenyl]carbonyl]amino]acetyl]amino]pyridine-3-propanoate, trifluoroacetate salt], the figures for the IC50 in experiment [1] and in experiment [2] were at least 100000 nM and 276 nM, respectively.

With `CCOC(=O)CC(NC(=O)CNC(=O)c1cccc(N/C(=N/C#N)NCc2ccccn2)c1)c1ccccc1` (stereo not drawn) [Example 143, ethyl β-[[2-[[[3-[[(cyanoimino)[2-pyridinylmethyl)amino]methyl]amino]phenyl]carbonyl]amino]acetyl]amino]benzenepropanoate, trifluoroacetate salt], the IC50 in experiment [1] was over 100000 nM; in experiment [2], 6700 nM.

Consider `N=C(N)Nc1cccc(C(=O)NCC(=O)NC(CC(=O)O)c2cc(F)cc(C(F)(F)F)c2)c1` (racemic) [Example 208, (±)β-[[2-[[[3-[(aminoiminomethyl)amino]phenyl]carbonyl]amino]acetyl]amino]-3-fluoro-5-(trifluoromethyl)benzenepropanoic acid, trifluoroacetate salt], for which the results for the IC50 in experiment [1] and in experiment [2] were 277 nM and 1.15 nM, respectively.

Regarding `CCOC(=O)CC(NC(=O)CNC(=O)c1cccc(NC(=O)Nc2ccccc2)c1)c1ccc2c(c1)OCO2` (stereo not drawn) [Example 123, ethyl β-[[2-[[[3-3-[[(phenylamino)carbonyl]amino]phenyl]carbonyl]amino]acetyl]amino]-1,3-benzodioxole-5-propanoate], the IC50 in experiment [1] was 85500 nM; in experiment [2] it was 11800 nM.

Regarding `N=C(N)Nc1cccc(C(=O)NCC(=O)NC(CC(=O)O)c2ccc(Cl)c(Cl)c2)c1` (racemic) [Example 175, (±)β-[[2-[[[3-[(aminoiminomethyl)amino]phenyl]carbonyl]amino]acetyl]amino]-3,4-dichlorobenzenepropanoic acid, trifluoroacetate salt], the IC50 in experiment [1] came out at 205 nM; in experiment [2], 2.12 nM.

Regarding `CCOC(=O)CC(NC(=O)CNC(=O)c1cccc(N/C(=N\C#N)NCc2cccnc2)c1)c1ccccc1` (stereo not drawn) [Example 145, ethyl β-[[2-[[[3-[[(cyanoimino)[3-pyridinylmethyl)amino]methyl]amino]phenyl]carbonyl]amino]acetyl]amino]benzenepropanoate, trifluoroacetate salt], the IC50 was over 100000 nM in experiment [1] and 2720 nM in experiment [2].

For the compound `N=C(N)Nc1cc(C(=O)O)cc(C(=O)NCC(=O)NC(CC(=O)O)c2cccnc2)c1` (stereo not drawn) [Example 289, β-[[2-[[[3-[(aminoiminomethyl)amino]-5-carboxyphenyl]carbonyl]amino]acetyl]amino]pyridine-3-propanoic acid, bis(trifluoroacetate)salt], the IC50 was determined as 621 nM in experiment [1] and 0.9 nM in experiment [2].

As for `N=C(N)Nc1cccc(C(=O)NCC(=O)NC(CC(=O)O)c2ccccc2OCC(=O)O)c1` (stereo not drawn) [Example 255, β-[[2-[[[3-[(aminoiminomethyl)amino]phenyl]carbonyl]amino]acetyl]amino]-2(carboxymethoxy)benzenepropanoic acid, trifluoroacetate salt], the IC50 in experiment [1] was 6050 nM; in experiment [2], 28.4 nM.

For `Cc1ccc(C(=O)NCC(=O)NC(CC(=O)O)c2cccnc2)cc1N` (stereo not drawn) [Example 84, β-[[2-[[(3-amino-4-methylphenyl)carbonyl]amino]acetyl]amino]pyridine-3-propanoic acid, bis(trifluoroacetate)salt], the IC50 amounted to 246 nM in experiment [1] and 2800 nM in experiment [2].

For the compound `COc1cc(C(CC(=O)O)NC(=O)CNC(=O)c2cccc(NC(=N)N)c2)cc2c1OCO2` (stereo not drawn) [Example 256, β-[[2-[[[3-[(aminoiminomethyl)amino]phenyl]carbonyl]amino]acetyl]amino]-4-methoxy-1,3-benzodioxole-6-propanoic acid, trifluoroacetate salt], the IC50 turned out to be 22 nM in experiment [1] and 0.58 nM in experiment [2].

For the compound `N=C(N)Nc1cc(C(=O)NCC(=O)NC(CC(=O)O)c2cc(Cl)cc(Cl)c2)ccc1Cl` (stereo not drawn) [Example 168, β-[[2-[[[3-[(aminoiminomethyl)amino]-4-chlorophenyl]carbonyl]amino]acetyl]amino]-3,5-dichlorobenzenepropanoic acid, trifluoroacetate salt], the IC50 in experiment [1] was 269 nM; in experiment [2], 2.29 nM.

Regarding `N=C(N)Nc1cccc(C(=O)NCC(=O)NC(CC(=O)O)c2ccc(Br)c(Br)c2)c1` (racemic) [Example 207, (±)β-[[2-[[[3-[(aminoiminomethyl)amino]phenyl]carbonyl]amino]acetyl]amino]-3,4-dibromobenzenepropanoic acid, trifluoroacetate salt], the results for the IC50 in experiment [1] and in experiment [2] were 148 nM and 0.9 nM, respectively.

Values taken from patent US6831199B1, “Pyrimidine compounds and derivatives thereof” (G. D. Searle & Co., priority 1995, dated 2004).
